Experimental findings from patent US6403626B1, “Benzimidazole derivatives” (Synaptic Pharmaceutical Corporation, priority 1994, dated 2002) are described below.

Assay [1] deals with T1, α1A Human Adrenergic Receptor (Homo sapiens, UniProt P25100).
T1 construct: expressed in transfected cells; host or cells: LM(tk-) cells
T1 sequence (P25100 1-572): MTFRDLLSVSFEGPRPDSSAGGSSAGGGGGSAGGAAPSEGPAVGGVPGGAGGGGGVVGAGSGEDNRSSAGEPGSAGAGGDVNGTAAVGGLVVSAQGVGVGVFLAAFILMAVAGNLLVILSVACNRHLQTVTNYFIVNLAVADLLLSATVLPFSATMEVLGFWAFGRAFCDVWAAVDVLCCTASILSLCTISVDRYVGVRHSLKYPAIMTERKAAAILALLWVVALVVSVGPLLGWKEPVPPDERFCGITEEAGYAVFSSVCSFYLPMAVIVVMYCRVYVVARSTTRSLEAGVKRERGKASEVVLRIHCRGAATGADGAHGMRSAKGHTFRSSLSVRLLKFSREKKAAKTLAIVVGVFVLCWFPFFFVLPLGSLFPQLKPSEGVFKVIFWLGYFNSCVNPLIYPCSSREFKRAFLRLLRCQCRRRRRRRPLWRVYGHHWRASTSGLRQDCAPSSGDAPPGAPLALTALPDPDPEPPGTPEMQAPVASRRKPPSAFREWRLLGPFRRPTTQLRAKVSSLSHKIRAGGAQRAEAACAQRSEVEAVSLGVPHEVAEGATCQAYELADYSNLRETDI
As to the kind of experiment: Equilibrium competition binding, [3H] prazosin, membranes of transfected LM(tk-) cells.

Assay [2] addresses T2, α2C Human Adrenergic Receptor (Homo sapiens, UniProt P18825).
T2 sequence (P18825 1-462): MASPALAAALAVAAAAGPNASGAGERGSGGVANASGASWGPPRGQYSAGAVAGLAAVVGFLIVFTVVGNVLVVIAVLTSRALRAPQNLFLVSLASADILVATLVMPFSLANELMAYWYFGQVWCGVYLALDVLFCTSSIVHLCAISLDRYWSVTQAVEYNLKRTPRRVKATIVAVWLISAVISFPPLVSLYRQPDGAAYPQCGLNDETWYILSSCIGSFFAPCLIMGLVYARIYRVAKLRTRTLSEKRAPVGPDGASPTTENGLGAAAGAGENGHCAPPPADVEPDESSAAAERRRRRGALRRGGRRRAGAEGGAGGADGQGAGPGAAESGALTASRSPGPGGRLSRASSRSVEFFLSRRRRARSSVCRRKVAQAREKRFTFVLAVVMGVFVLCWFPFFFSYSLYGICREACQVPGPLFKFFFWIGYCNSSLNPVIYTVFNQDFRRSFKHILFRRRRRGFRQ
It is filed as cell-based. Also noted: The entire coding region of α2C (1383 bp), including 2 bp of 5′ UT and 400 bp of 3′ UT; expressed in transfected cells; host or cells: LM(tk-) cells. The settings on record: for I.A Alpha-2 C: functional cAMP assay. For orientation: cAMP levels reflect the balance of adenylyl cyclase and phosphodiesterase activity.

Assay [3] concerns the target T3, α2B Human Adrenergic Receptor (Homo sapiens, UniProt P18089).
T3 construct: expressed in transfected cells; host or cells: Y-1 cells
T3 sequence (P18089 1-450): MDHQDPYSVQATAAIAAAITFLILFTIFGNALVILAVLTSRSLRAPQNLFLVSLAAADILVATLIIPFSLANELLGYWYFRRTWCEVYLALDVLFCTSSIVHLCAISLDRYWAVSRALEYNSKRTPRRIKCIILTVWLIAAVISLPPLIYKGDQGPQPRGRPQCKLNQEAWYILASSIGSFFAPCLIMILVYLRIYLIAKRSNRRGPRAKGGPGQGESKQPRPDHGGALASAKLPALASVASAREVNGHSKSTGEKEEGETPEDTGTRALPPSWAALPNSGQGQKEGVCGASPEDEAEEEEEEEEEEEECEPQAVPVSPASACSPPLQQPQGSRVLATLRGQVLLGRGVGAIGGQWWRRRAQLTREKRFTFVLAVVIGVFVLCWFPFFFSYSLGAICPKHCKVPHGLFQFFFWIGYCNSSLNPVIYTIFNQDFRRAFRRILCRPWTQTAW
It is filed as cell-based.

Setting [4] is: inhibition of forskolin-stimulated cAMP, NA: Not Active, read-out: pEC50 Alpha-2 B (converted).
Setting [5] is: inhibition of forskolin-stimulated cAMP, NA: Not Active, read-out: pEC50 Alpha-2 C (converted).
[6] abbreviates: cloned human receptor, [3H] prazosin, read-out: pKi Alpha-1 A (converted).
Where [7] appears, read: inhibition of forskolin-stimulated cAMP, NA: Not Active.

Structures are written as SMILES. Where two headings read alike, the source gives them in different places.

The compound `Cn1cnc2c(Br)c(NC3=NCCN3)ccc21` [Example 10, 1-Methyl-4-bromo-5-(2-imidazolin-2-ylamino)Benzimidazole] showed a Ki in assay [1] of 617 nM. Further, in assay [2], the EC50 is 2.34 nM and the “I.A Alpha-2 C” value is reported as 1.00. In addition, in assay [3], the EC50 is 102 nM and the “I.A Alpha-2 B” value is on record as 1.00.

As for `Cn1cnc2cc(NC3=NCCN3)ccc21` [Example 9, 1-Methyl-5-(2-imidazolin-2-ylamino)Benzimidazole], in assay [1], the Ki was 2750 nM. In addition, in assay [2], the “I.A Alpha-2 C” value is given as 1.00. For the same compound, in assay [3] (functional cAMP assay), the “I.A Alpha-2 B” value worked out at 1.00. In addition, the EC50 in assay [3] (setting [4]) is 58.9 nM.

Turning to `c1nc2ccc(NC3=NCCN3)cc2[nH]1` [Example 1, 5-(2-Imidazolin-2-ylamino)Benzimidazole], the Ki in assay [1] is 6760 nM. In assay [2], the EC50 is 2.75 nM and the “I.A Alpha-2 C” value worked out at 1.00. Also, in assay [3], the EC50 is 44.7 nM and the “I.A Alpha-2 B” value came out at 1.00.

In assay [1], `OCCn1cnc2c(Br)c(NC3=NCCN3)ccc21` [Example 38, 1-(2-Hydroxyethyl)-4-bromo-5-(2-imidazolin-2-ylamino)Benzimidazole] gave a Ki of 7240 nM. In addition, in assay [2], the “I.A Alpha-2 C” value was found to be 1.00. The EC50 was 363 nM in assay [2] (setting [5]) and 158 nM in assay [3] (setting [4]). Also, in assay [3] (functional cAMP assay), the “I.A Alpha-2 B” value is given as 0.80.

As for `Cc1c(N=C2NCCN2)ccc2[nH]cnc12` [Example 4, 4-Methyl-5-(2-imidazolin-2-ylamino)Benzimidazole], the Ki in assay [1] (setting [6]) is 603 nM. Also, the EC50 in assay [2] (setting [5]) was 0.355 nM; in assay [3] (setting [4]) it was 9.77 nM.

As to `Cn1cnc2ccc(NC3=NCCN3)c(Br)c21` [Example 12, 3-Methyl-4-bromo-5-(imidazolin-2-ylamino)Benzimidazole], the “pKi Alpha-1 A” value in assay [1] (cloned human receptor, [3H] prazosin) was determined as 7.02. Further, in assay [2], the “I.A Alpha-2 C” value stood at 1.00. The “pEC50 Alpha-2 C” value in assay [2] (setting [7]) was determined as 7.76. In assay [3] (functional cAMP assay), the “I.A Alpha-2 B” value amounted to 1.00. The “pEC50 Alpha-2 B” value in assay [3] (setting [7]) stood at 7.51.

As to `CCc1nc2ccc(NC3=NCCN3)c(Br)c2[nH]1` [Example 43, 2-Ethyl-4-bromo-5-(2-imidazolin-2-ylamino)Benzimidazole], the Ki in assay [1] is 1740 nM. Moreover, the “I.A Alpha-2 C” value in assay [2] is given as 0.90. Moreover, in assay [3], the EC50 was 162 nM and the “I.A Alpha-2 B” value came to 0.80.

`Clc1cc(NC2=NCCN2)cc2[nH]cnc12` [Example 53, 7-Chloro-5-(2-imidazolin-2-ylamino)Benzimidazole] gave a Ki in assay [1] of 309 nM. Moreover, in assay [2], the EC50 was 1.07 nM and the “I.A Alpha-2 C” value was determined as 1.00. Further, in assay [3], the EC50 was 18.2 nM and the “I.A Alpha-2 B” value is given as 1.00.

`Brc1c(NC2=NCCN2)ccc2nc[nH]c12` [Example 2, 4-Bromo-5-(2-imidazolin-2-ylamino)Benzimidazole] had a Ki in assay [1] of 955 nM. Also, the “I.A Alpha-2 C” value in assay [2] is listed as 1.00. In addition, the EC50 is 117 nM in assay [2] (setting [5]) and 18.6 nM in assay [3] (setting [4]). The “I.A Alpha-2 B” value in assay [3] (functional cAMP assay) turned out to be 1.00.

In the case of `Ic1c(NC2=NCCN2)ccc2nc[nH]c12` [Example 5, 4-Iodo-5-(2-imidazolin-2-ylamino)Benzimidazole], the Ki in assay [1] is 537 nM. Also, in assay [2], the EC50 is 1.35 nM and the “I.A Alpha-2 C” value was 1.00. In assay [3], the EC50 was 46.8 nM and the “I.A Alpha-2 B” value turned out to be 1.00.

The compound `Clc1c(NC2=NCCN2)ccc2nc[nH]c12` [Example 3, 4-Chloro-5-(2-imidazolin-2-ylamino)Benzimidazole] gave a Ki in assay [1] of 537 nM. The values for the EC50 in assay [2] and in assay [3] (setting [4]) were 0.562 nM and 12.6 nM, respectively. The “I.A Alpha-2 C” value in assay [2] was 1.00. Moreover, the “I.A Alpha-2 B” value in assay [3] (functional cAMP assay) is recorded as 1.00.

`COc1ccc(Cn2cnc3c(Br)c(NC4=NCCN4)ccc32)cc1` [Example 36, 1-(4-Methoxybenzyl)-4-bromo-5-(2-imidazolin-2-ylamino)Benzimidazole] had a Ki in assay [1] of 813 nM. Also, the “I.A Alpha-2 B” value in assay [3] (functional cAMP assay) is reported as 0.60. Besides, in assay [3] (setting [4]), the EC50 was 282 nM.

In assay [1], `Cc1nc2ccc(NC3=NCCN3)c(Br)c2[nH]1` [Example 42, 2-Methyl-4-bromo-5-(2-imidazolin-2-ylamino)Benzimidazole] showed a Ki of 1620 nM. In addition, in assay [3], the EC50 is 97.7 nM and the “I.A Alpha-2 B” value came to 0.60.

As for `CCCCc1c(NC2=NCCN2)ccc2nc[nH]c12` [Example 8, 4-n-Butyl-5-(2-imidazolin-2-ylamino)Benzimidazole], in assay [1], the Ki was 676 nM. Moreover, the “I.A Alpha-2 C” value in assay [2] turned out to be 1.00. Moreover, the “I.A Alpha-2 B” value in assay [3] (functional cAMP assay) is given as 0.80. For the same compound, the EC50 in assay [3] (setting [4]) is 234 nM.

The compound `CCCCc1cc(NC2=NCCN2)cc2[nH]cnc12` [Example 56, 7-Butyl-5-(2-imidazolin-2-ylamino)Benzimidazole] showed a Ki in assay [1] of 1260 nM. Besides, in assay [2], the “I.A Alpha-2 C” value was found to be 1.00. The “I.A Alpha-2 B” value in assay [3] (functional cAMP assay) is reported as 0.30. In addition, the EC50 in assay [3] (setting [4]) is 219 nM.

For `Brc1c(NC2=NCCN2)ccc2nc(C(c3ccccc3)c3ccccc3)[nH]c12` [Example 48, 2-Diphenylmethyl-4-bromo-5-(2-imidazolin-2-ylamino)Benzimidazole], the Ki in assay [1] (setting [6]) was 1230 nM. In addition, the “I.A Alpha-2 C” value in assay [2] was found to be 0.60. Also, the EC50 is 1.35 nM in assay [2] (setting [5]) and 200 nM in assay [3] (setting [4]). The “I.A Alpha-2 B” value in assay [3] (functional cAMP assay) is recorded as 0.80.

Consider `Clc1cc(NC2=NCCN2)c(Br)c2[nH]cnc12` [Example 60, 4-Bromo-7-chloro-5-(2-imidazolin-2-ylamino)Benzimidazole], for which, in assay [1], the Ki is 224 nM. Also, in assay [2], the EC50 was 0.398 nM and the “I.A Alpha-2 C” value is 1. Besides, in assay [3], the EC50 is 17.8 nM and the “I.A Alpha-2 B” value was 0.9.

For `CC(C)c1nc2ccc(NC3=NCCN3)c(Br)c2[nH]1` [Example 44, 2-Isopropyl-4-bromo-5-(2-imidazolin-2-ylamino)Benzimidazole], the Ki in assay [1] is 2040 nM. The “I.A Alpha-2 C” value in assay [2] is recorded as 0.80. In addition, the EC50 in assay [2] (setting [5]) was 182 nM. For the same compound, in assay [3], the EC50 was 91.2 nM and the “I.A Alpha-2 B” value is recorded as 0.80.

Take `CCCc1c(NC2=NCCN2)ccc2nc[nH]c12` [Example 7, 4-n-Propyl-5-(2-imidazolin-2-ylamino)Benzimidazole]: the Ki in assay [1] was 269 nM. Further, in assay [2], the EC50 was 6.17 nM and the “I.A Alpha-2 C” value is 1.00. Moreover, in assay [3], the EC50 is 200 nM and the “I.A Alpha-2 B” value is recorded as 1.00.

As to `Brc1cc2nc[nH]c2c(Br)c1NC1=NCCN1` [Example 50, 4,6-Dibromo-5-(2-imidazolin-2-ylamino)Benzimidazole], in assay [1], the Ki was 35.5 nM. In assay [2], the EC50 came to 70.8 nM and the “I.A Alpha-2 C” value turned out to be 1.00. Also, in assay [3], the EC50 is 20.9 nM and the “I.A Alpha-2 B” value was 0.90.

The compound `CC(C)(C)c1nc2ccc(NC3=NCCN3)c(Br)c2[nH]1` [Example 45, 2-tert-Butyl-4-bromo-5-(2-imidazolin-2-ylamino)Benzimidazole] gave a Ki in assay [1] of 4570 nM. For the same compound, the “I.A Alpha-2 C” value in assay [2] was found to be 0.60. In assay [3], the EC50 is 851 nM and the “I.A Alpha-2 B” value came to 0.70.
